Paper PMC9090415, “Discovery of small molecule inhibitors of Plasmodium falciparum apicoplast DNA polymerase” (Journal of Enzyme Inhibition and Medicinal Chemistry, 2022)

Biological target: P. falciparum apicoplast DNA polymerase (Pf-apPOL) (Plasmodium falciparum, UniProt Q8ILY1)
Assay: Fluorescence-based high-throughput DNA polymerase assay (molecular beacon), primary screen and dose-response
Assay type: biochemical
Settings: for DNA Pol: unit not given, 90 min, 10 µM; for % inhibition apPOL 180' 2.5 / % inhibition apPOL 180' 5 / % inhibition apPOL 180' 10 / % inhibition apPOL 180' 20 / % inhibition apPOL 180' 40 / % inhibition apPOL 180' 80: read at 180'
Method in brief: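 Single-point screening used 10 µM compound with 20 nM polymerase, 20 nM hairpin substrate and 6 µM dNTPs for 90 min at 25 °C. Confirmatory titrations (2.5–80 µM) followed fluorescence at three times, and IC50 was derived from a fit including a cooperativity term n.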

P. falciparum apicoplast DNA polymerase (Pf-apPOL), sequence (Q8ILY1 entry or part of it): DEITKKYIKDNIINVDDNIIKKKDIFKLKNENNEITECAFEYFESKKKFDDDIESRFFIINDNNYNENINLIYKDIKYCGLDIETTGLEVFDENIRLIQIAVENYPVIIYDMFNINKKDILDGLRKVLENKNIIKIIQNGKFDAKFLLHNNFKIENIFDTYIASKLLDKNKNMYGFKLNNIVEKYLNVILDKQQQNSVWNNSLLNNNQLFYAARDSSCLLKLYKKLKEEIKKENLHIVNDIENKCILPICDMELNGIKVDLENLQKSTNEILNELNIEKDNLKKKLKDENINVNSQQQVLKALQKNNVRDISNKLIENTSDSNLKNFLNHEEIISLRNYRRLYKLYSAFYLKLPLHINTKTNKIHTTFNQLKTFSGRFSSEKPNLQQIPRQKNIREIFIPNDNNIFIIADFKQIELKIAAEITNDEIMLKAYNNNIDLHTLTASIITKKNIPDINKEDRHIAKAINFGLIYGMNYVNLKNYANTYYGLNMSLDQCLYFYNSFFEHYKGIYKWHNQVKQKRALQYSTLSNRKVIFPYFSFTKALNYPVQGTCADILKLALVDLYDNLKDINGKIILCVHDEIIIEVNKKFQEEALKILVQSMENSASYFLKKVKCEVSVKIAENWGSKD

CC(C)CC(C(=O)O)N1C(=O)C2C3C=CC(C2C1=O)C1C(=O)N(C(CC(C)C)C(=O)O)C(=O)C31 (stereo not drawn) [KU0193449]
DNA Pol (186 hits, DNA Pol (screen value)): 28
DNA Pol ('DNA Pol' (screen value)): 28
% inhibition Apo pol 10' 2.5 (DRC-1, read at 10', concentration 2.5): 0%
% inhibition Apo pol 10' 5 (DRC-1, read at 10', concentration 5): 0.7522%
% inhibition Apo pol 10' 10 (DRC-1, read at 10', concentration 10): 13.4113%
% inhibition Apo pol 10' 20 (DRC-1, read at 10', concentration 20): 21.694%
% inhibition Apo pol 10' 40 (DRC-1, read at 10', concentration 40): 38.6815%
% inhibition Apo pol 10' 80 (DRC-1, read at 10', concentration 80): 61.0106%
% inhibition Apol 90' 2.5 (DRC-1, read at 90', concentration 2.5): 5.482%
% inhibition Apol 90' 5 (DRC-1, read at 90', concentration 5): 4.361%
% inhibition Apol 90' 10 (DRC-1, read at 90', concentration 10): 18.2004%
% inhibition Apol 90' 20 (DRC-1, read at 90', concentration 20): 26.7933%
% inhibition Apol 90' 40 (DRC-1, read at 90', concentration 40): 43.0787%
% inhibition Apol 90' 80 (DRC-1, read at 90', concentration 80): 61.6554%
% inhibition apPOL 180' 2.5 (DRC-1, concentration 2.5): 11.5947%
% inhibition apPOL 180' 5 (DRC-1, concentration 5): 8.787%
% inhibition apPOL 180' 10 (DRC-1, concentration 10): 22.2545%
% inhibition apPOL 180' 20 (DRC-1, concentration 20): 29.0446%
% inhibition apPOL 180' 40 (DRC-1, concentration 40): 41.2526%
% inhibition apPOL 180' 80 (DRC-1, concentration 80): 55.1992%
% inhibition Apo pol 5' (DRC-2, 5', concentration 20): 13%
% inhibition Apol 40' (DRC-2, 40', concentration 20): 20%
% inhibition ApPOL 90' (DRC-2, 90', concentration 20): 20%
% inhibition apPOL 180' (DRC-2, 180', concentration 20): 13%
% inhibition Apo pol 5' 2.5 (DRC-2, read at 5', concentration 2.5): -1.41%
% inhibition Apo pol 5' 5 (DRC-2, read at 5', concentration 5): 2.69%
% inhibition Apo pol 5' 10 (DRC-2, read at 5', concentration 10): 10%
% inhibition Apo pol 5' 20 (DRC-2, read at 5', concentration 20): 13%
% inhibition Apo pol 5' 40 (DRC-2, read at 5', concentration 40): 23%
% inhibition Apo pol 5' 80 (DRC-2, read at 5', concentration 80): 31%
% inhibition Apol 40' 2.5 (DRC-2, read at 40', concentration 2.5): -0.315%
% inhibition Apol 40' 5 (DRC-2, read at 40', concentration 5): 4.49%
% inhibition Apol 40' 10 (DRC-2, read at 40', concentration 10): 12%
% inhibition Apol 40' 20 (DRC-2, read at 40', concentration 20): 20%
% inhibition Apol 40' 40 (DRC-2, read at 40', concentration 40): 33%
% inhibition Apol 40' 80 (DRC-2, read at 40', concentration 80): 49%
% inhibition ApPOL 90' 2.5 (DRC-2, read at 90', concentration 2.5): -0.778%
% inhibition ApPOL 90' 5 (DRC-2, read at 90', concentration 5): 4.24%
% inhibition ApPOL 90' 10 (DRC-2, read at 90', concentration 10): 11%
% inhibition ApPOL 90' 20 (DRC-2, read at 90', concentration 20): 20%
% inhibition ApPOL 90' 40 (DRC-2, read at 90', concentration 40): 34%
% inhibition ApPOL 90' 80 (DRC-2, read at 90', concentration 80): 51%
% inhibition apPOL 180' 2.5 (DRC-2, concentration 2.5): -5%
% inhibition apPOL 180' 5 (DRC-2, concentration 5): -2.57%
% inhibition apPOL 180' 10 (DRC-2, concentration 10): 5%
% inhibition apPOL 180' 20 (DRC-2, concentration 20): 13%
% inhibition apPOL 180' 40 (DRC-2, concentration 40): 28%
% inhibition apPOL 180' 80 (DRC-2, concentration 80): 47%
